In ChEMBL document CHEMBL1153558, “In vitro antifungal susceptibilities of five species of sporothrix” (2008):
In brackets after ≈: the same amount, converted by molar mass. Numbered stars: 1 amine (or outer) side, 2 acyl side, 3 side chain; on linkers, the order of the positions; unused ones are H or OH. Bridge positions count the residues as written; N and C are the ends. Square brackets hold non-standard residues; d marks the D form. Peptide text beside a SMILES is read from it. * marks the point of attachment. hTyr(3S-OH,4S-OH,3'-OSO3H) = N[C@H](C(=O)O)[C@H](O)[C@@H](O)c1ccc(O)c(OS(=O)(=O)O)c1; Orn(4R-OH,5R-OH) = O=C([C@H](C[C@@H](O)[C@@H](O)N[*:3])N[*:1])[*:2]; Pro(3S-OH,4S-Me) = C[C@H]1CN[C@H](C(=O)O)[C@H]1O; X1 = CCCCCOc1ccc(-c2cc(-c3ccc(C(=O)*)cc3)no2)cc1; Gln(3R-OH) = NC(=O)C[C@@H](O)[C@H](N)C(=O)O; Hyp = O=C(O)[C@@H]1C[C@@H](O)CN1

Columns and labels:
Type in all cases: functional
[1] = test system: Sporothrix globosa; experiment: Antifungal activity against Sporothrix globosa after 72 hrs by microdilution method
[2] = test system: Sporothrix; experiment: Antifungal activity against Sporothrix mexicana after 72 hrs by microdilution method
[3] = test system: Sporothrix; experiment: Antifungal activity against Sporothrix brasiliensis after 72 hrs by microdilution method
[4] = test system: Sporothrix albicans; experiment: Antifungal activity against Sporothrix albicans after 72 hrs by microdilution method
[5] = test system: Sporothrix schenckii; experiment: Antifungal activity against Sporothrix schenckii after 72 hrs by microdilution method

Compound	MIC50 [1] [µg/mL]	MIC90 [1] [µg/mL]	MIC [2] [µg/mL]	MIC50 [3] [µg/mL]	MIC90 [3] [µg/mL]	MIC50 [4] [µg/mL]	MIC90 [4] [µg/mL]	MIC50 [5] [µg/mL]	MIC90 [5] [µg/mL]	MIC [1] [µg/mL]	MIC [3] [µg/mL]	MIC [4] [µg/mL]	MIC [5] [µg/mL]
Clc1cc(Cl)c2c(c1)CCc1ccccc1C2n1ccnc1 (stereo not given) [EBERCONAZOLE]	2 (≈ 6.07 µM)	4 (≈ 12.1 µM)	32 (≈ 97.2 µM)	0.25 (≈ 0.759 µM)	1 (≈ 3.04 µM)	8 (≈ 24.3 µM)	16 (≈ 48.6 µM)	2 (≈ 6.07 µM)	8 (≈ 24.3 µM)	–	–	–	–
CCCCCOc1ccc(-c2cc(-c3ccc(C(=O)N[C@H]4C[C@@H](O)[C@@H](O)NC(=O)[C@@H]5[C@@H](O)[C@@H](C)CN5C(=O)[C@H]([C@H](O)CC(N)=O)NC(=O)[C@H]([C@H](O)[C@@H](O)c5ccc(O)c(OS(=O)(=O)O)c5)NC(=O)[C@@H]5C[C@@H](O)CN5C(=O)[C@H]([C@@H](C)O)NC4=O)cc3)no2)cc1 [MICAFUNGIN] (X1-[Orn(4R-OH,5R-OH)]T[Hyp][hTyr(3S-OH,4S-OH,3'-OSO3H)][Gln(3R-OH)][Pro(3S-OH,4S-Me)]; lactam 1-C)	256 (≈ 202 µM)	256 (≈ 202 µM)	256 (≈ 202 µM)	256 (≈ 202 µM)	256 (≈ 202 µM)	256 (≈ 202 µM)	256 (≈ 202 µM)	256 (≈ 202 µM)	256 (≈ 202 µM)	256 (≈ 202 µM)	256 (≈ 202 µM)	256 (≈ 202 µM)	256 (≈ 202 µM)
C[C@@H](c1nc(-c2ccc(C#N)cc2)cs1)[C@](O)(Cn1cncn1)c1ccc(F)cc1F [RAVUCONAZOLE]	8 (≈ 18.3 µM)	16 (≈ 36.6 µM)	32 (≈ 73.1 µM)	0.5 (≈ 1.14 µM)	1 (≈ 2.29 µM)	16 (≈ 36.6 µM)	32 (≈ 73.1 µM)	8 (≈ 18.3 µM)	16 (≈ 36.6 µM)	–	–	–	–
CN(C/C=C/C#CC(C)(C)C)Cc1cccc2ccccc12 [TERBINAFINE]	0.25 (≈ 0.858 µM)	0.5 (≈ 1.72 µM)	0.5 (≈ 1.72 µM)	0.06 (≈ 0.206 µM)	0.25 (≈ 0.858 µM)	0.5 (≈ 1.72 µM)	4 (≈ 13.7 µM)	0.25 (≈ 0.858 µM)	0.5 (≈ 1.72 µM)	–	0.06 (≈ 0.206 µM)	–	–
CC(=O)N1CCN(c2ccc(OCC3COC(Cn4ccnc4)(c4ccc(Cl)cc4Cl)O3)cc2)CC1 (stereo not given) [KETOCONAZOLE]	1 (≈ 1.88 µM)	2 (≈ 3.76 µM)	4 (≈ 7.53 µM)	0.125 (≈ 0.235 µM)	0.25 (≈ 0.47 µM)	4 (≈ 7.53 µM)	4 (≈ 7.53 µM)	1 (≈ 1.88 µM)	2 (≈ 3.76 µM)	–	–	–	–
OC(Cn1cncn1)(Cn1cncn1)c1ccc(F)cc1F [FLUCONAZOLE]	128 (≈ 418 µM)	128 (≈ 418 µM)	128 (≈ 418 µM)	128 (≈ 418 µM)	128 (≈ 418 µM)	128 (≈ 418 µM)	128 (≈ 418 µM)	128 (≈ 418 µM)	128 (≈ 418 µM)	128 (≈ 418 µM)	128 (≈ 418 µM)	128 (≈ 418 µM)	128 (≈ 418 µM)
C[C@@H](c1ncncc1F)[C@](O)(Cn1cncn1)c1ccc(F)cc1F [VORICONAZOLE]	32 (≈ 91.6 µM)	32 (≈ 91.6 µM)	16 (≈ 45.8 µM)	4 (≈ 11.5 µM)	8 (≈ 22.9 µM)	8 (≈ 22.9 µM)	32 (≈ 91.6 µM)	32 (≈ 91.6 µM)	32 (≈ 91.6 µM)	–	–	–	–
CC[C@@H]([C@H](C)O)n1ncn(-c2ccc(N3CCN(c4ccc(OC[C@@H]5CO[C@@](Cn6cncn6)(c6ccc(F)cc6F)C5)cc4)CC3)cc2)c1=O [POSACONAZOLE]	2 (≈ 2.85 µM)	8 (≈ 11.4 µM)	32 (≈ 45.7 µM)	0.5 (≈ 0.713 µM)	1 (≈ 1.43 µM)	2 (≈ 2.85 µM)	2 (≈ 2.85 µM)	1 (≈ 1.43 µM)	8 (≈ 11.4 µM)	–	–	–	–
Nc1nc(=O)[nH]cc1F [FLUCYTOSINE]	64 (≈ 496 µM)	128 (≈ 992 µM)	128 (≈ 992 µM)	16 (≈ 124 µM)	128 (≈ 992 µM)	128 (≈ 992 µM)	128 (≈ 992 µM)	16 (≈ 124 µM)	128 (≈ 992 µM)	–	–	128 (≈ 992 µM)	–
CCC(C)n1ncn(-c2ccc(N3CCN(c4ccc(OCC5COC(Cn6cncn6)(c6ccc(Cl)cc6Cl)O5)cc4)CC3)cc2)c1=O (stereo not given) [ITRACONAZOLE]	32 (≈ 45.3 µM)	32 (≈ 45.3 µM)	32 (≈ 45.3 µM)	0.5 (≈ 0.709 µM)	1 (≈ 1.42 µM)	32 (≈ 45.3 µM)	32 (≈ 45.3 µM)	4 (≈ 5.67 µM)	32 (≈ 45.3 µM)	–	0.5 (≈ 0.709 µM)	32 (≈ 45.3 µM)	–
C[C@@H](n1cnc2cc(Cl)ccc2c1=O)[C@](O)(Cn1cncn1)c1ccc(F)cc1F [ALBACONAZOLE]	16 (≈ 37.1 µM)	16 (≈ 37.1 µM)	32 (≈ 74.1 µM)	1 (≈ 2.32 µM)	4 (≈ 9.26 µM)	16 (≈ 37.1 µM)	32 (≈ 74.1 µM)	16 (≈ 37.1 µM)	32 (≈ 74.1 µM)	–	–	–	–
C[C@@H]1[C@H](O)[C@@H](C)/C=C/C=C/C=C/C=C/C=C/C=C/C=C/[C@H](O[C@@H]2O[C@H](C)[C@@H](O)[C@H](N)[C@@H]2O)C[C@@H]2O[C@](O)(C[C@@H](O)C[C@@H](O)[C@H](O)CC[C@@H](O)C[C@@H](O)CC(=O)O[C@H]1C)C[C@H](O)[C@H]2C(=O)O [AMPHOTERICIN B]	4 (≈ 4.33 µM)	8 (≈ 8.66 µM)	16 (≈ 17.3 µM)	2 (≈ 2.16 µM)	4 (≈ 4.33 µM)	4 (≈ 4.33 µM)	8 (≈ 8.66 µM)	4 (≈ 4.33 µM)	4 (≈ 4.33 µM)	–	–	–	–
